Columns and labels:
Details in all cases: compound at 10 μM
Human δ-opioid (DOP) = biological target: T1, Human δ-opioid (DOP) (Homo sapiens, UniProt P41143); assay: Radioligand binding, human δ-opioid (DOP) membranes, FlashPlate, [3H]-Bremazocine
T1 construct: purchased Perkin Elmer Biosignal
Outline: (§1)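 Cloned human receptor membranes were coated onto FlashPlate wells and incubated with radioligand and compound (added from a 0.5 mM DMSO daughter plate) for 1 hour at room temperature in the dark. Scintillation counting gave percent inhibition, with DMSO defining total and reference ligand defining non-specific binding.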

[1] = biological target: T2, Human melanin-concentrating hormone (MCH1) (Homo sapiens, UniProt Q99705); assay: Radioligand binding, human melanin-concentrating hormone MCH1 membranes, FlashPlate, [125I]-S36057
T2 construct: purchased Perkin Elmer Biosignal
Outline: as §1

Human opioid (ORL1) = biological target: T3, Human opioid (ORL1) (Homo sapiens, UniProt P41146); assay: Radioligand binding, human opioid ORL1 membranes, FlashPlate, [125I]-Nociceptin
T3 construct: purchased Perkin Elmer Biosignal
Outline: as §1

Mouse urotensin (mUR2) = biological target: T4, Mouse urotensin (mUR2) (Mus musculus, UniProt Q8VIH9); assay: Radioligand binding, mouse urotensin mUR2 membranes, FlashPlate, [125I]-Urotensin II
T4 construct: purchased Perkin Elmer Biosignal
T4 sequence (Q8VIH9 1-385): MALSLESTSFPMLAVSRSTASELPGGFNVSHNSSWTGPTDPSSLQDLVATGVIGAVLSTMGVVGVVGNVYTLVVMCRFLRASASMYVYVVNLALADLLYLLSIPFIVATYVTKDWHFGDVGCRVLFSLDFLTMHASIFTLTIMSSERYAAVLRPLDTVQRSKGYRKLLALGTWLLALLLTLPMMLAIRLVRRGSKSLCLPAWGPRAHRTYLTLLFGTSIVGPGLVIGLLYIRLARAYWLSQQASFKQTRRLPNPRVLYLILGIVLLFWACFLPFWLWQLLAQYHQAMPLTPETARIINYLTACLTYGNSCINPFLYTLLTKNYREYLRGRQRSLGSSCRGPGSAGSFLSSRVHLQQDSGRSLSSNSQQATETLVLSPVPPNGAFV
Outline: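 Cloned mouse urotensin (mUR2) receptor membranes from Perkin Elmer Biosignal were immobilized in FlashPlate microplates using a proprietary coating. Each well got 19.5 μl buffer, then 0.5 μl of DMSO, reference ligand, or compound. Adding 5 μl of [125I]-Urotensin II, diluted to 5× final concentration in binding buffer, started binding. Plates were sealed with TopSeal-A and incubated 1 hour at room temperature in the dark. Wells were counted for 30 seconds each on a TopCount after a 60-second delay, and percentage inhibition was calculated.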

Human κ-Opioid (KOP) = biological target: T5, Human κ-Opioid (KOP) (Homo sapiens, UniProt P41145); assay: Radioligand binding, human κ-opioid (KOP) membranes, filtration, [3H]-Diprenorphine
T5 construct: purchased Perkin Elmer Biosignal
Outline: (§2)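 Membranes from cloned human receptors were incubated with compound and radioligand for 1 hour at room temperature. Bound ligand was collected on 0.3% PEI-soaked filters, washed with cold 50 mM Tris-HCl pH 7.4, and counted by scintillation. Percent inhibition was computed against DMSO totals and reference-ligand nonspecific wells.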

Human neurokinin (NK1) = biological target: T6, Human neurokinin (NK1) (Homo sapiens, UniProt P25103); assay: Radioligand binding, human neurokinin NK1 membranes, filtration, [125I]-Substance P
T6 construct: purchased Perkin Elmer Biosignal
Outline: as §2

Human μ-opioid (MOP) = biological target: T7, Human μ-opioid (MOP) (Homo sapiens, UniProt P35372); assay: Radioligand binding, human μ-opioid (MOP) membranes, FlashPlate, [3H]-Naloxone
T7 construct: purchased Perkin Elmer Biosignal
Outline: as §1

Human Melanocortin (MC3) = biological target: T8, Human Melanocortin (MC3) (Homo sapiens, UniProt P41968); assay: Radioligand binding, human melanocortin MC3 membranes, FlashPlate, [125I]-NDP-αMSH
T8 construct: purchased Perkin Elmer Biosignal
Outline: as §1

Human Melanocortin (MC4) = biological target: T9, Human Melanocortin (MC4) (Homo sapiens, UniProt P32245); assay: Radioligand binding, human melanocortin MC4 membranes, FlashPlate, [125I]-NDP-αMSH
T9 construct: purchased Perkin Elmer Biosignal
Outline: as §1

Human melanocortin (MC5) = biological target: T10, Human melanocortin (MC5) (Homo sapiens, UniProt P33032); assay: Radioligand binding, human melanocortin MC5 membranes, FlashPlate, [125I]-NDP-αMSH
T10 construct: purchased Perkin Elmer Biosignal
Outline: as §1

[2] = biological target: T11, Human neuropeptide Y (NPY-Y1) (Homo sapiens, UniProt P25929); assay: Radioligand binding, human neuropeptide Y NPY-Y1 membranes, FlashPlate, [125I]-PYY
T11 construct: purchased Perkin Elmer Biosignal
T11 sequence (P25929 1-384): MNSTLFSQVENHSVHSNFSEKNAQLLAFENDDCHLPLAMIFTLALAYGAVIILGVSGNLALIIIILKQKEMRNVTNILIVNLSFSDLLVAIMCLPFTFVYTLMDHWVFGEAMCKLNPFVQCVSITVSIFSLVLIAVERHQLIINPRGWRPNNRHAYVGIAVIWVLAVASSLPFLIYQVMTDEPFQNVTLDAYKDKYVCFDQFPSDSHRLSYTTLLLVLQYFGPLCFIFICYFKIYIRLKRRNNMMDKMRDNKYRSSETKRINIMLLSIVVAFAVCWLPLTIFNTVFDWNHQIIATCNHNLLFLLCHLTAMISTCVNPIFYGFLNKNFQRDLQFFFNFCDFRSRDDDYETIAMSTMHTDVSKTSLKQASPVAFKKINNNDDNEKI
Outline: as §1

T1 sequence (P41143 whole entry): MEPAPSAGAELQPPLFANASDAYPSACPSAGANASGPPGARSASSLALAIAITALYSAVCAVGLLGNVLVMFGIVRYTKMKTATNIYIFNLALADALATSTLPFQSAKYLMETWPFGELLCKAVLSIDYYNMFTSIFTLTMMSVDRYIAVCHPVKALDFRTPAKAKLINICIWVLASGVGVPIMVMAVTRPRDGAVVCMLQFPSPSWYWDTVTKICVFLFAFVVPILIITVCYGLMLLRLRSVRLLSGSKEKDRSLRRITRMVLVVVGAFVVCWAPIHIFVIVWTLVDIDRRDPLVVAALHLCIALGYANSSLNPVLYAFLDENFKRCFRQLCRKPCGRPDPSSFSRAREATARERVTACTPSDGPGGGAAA
T9 sequence (P32245 whole entry): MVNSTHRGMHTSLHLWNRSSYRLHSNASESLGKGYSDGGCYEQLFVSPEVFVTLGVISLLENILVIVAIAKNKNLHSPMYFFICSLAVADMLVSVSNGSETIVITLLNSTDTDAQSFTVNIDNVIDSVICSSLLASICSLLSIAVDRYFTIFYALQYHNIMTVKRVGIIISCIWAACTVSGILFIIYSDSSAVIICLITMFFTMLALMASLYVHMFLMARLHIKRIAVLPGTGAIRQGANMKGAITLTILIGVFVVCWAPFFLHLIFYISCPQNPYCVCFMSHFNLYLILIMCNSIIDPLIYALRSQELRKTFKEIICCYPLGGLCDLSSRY
T6 sequence (P25103 whole entry): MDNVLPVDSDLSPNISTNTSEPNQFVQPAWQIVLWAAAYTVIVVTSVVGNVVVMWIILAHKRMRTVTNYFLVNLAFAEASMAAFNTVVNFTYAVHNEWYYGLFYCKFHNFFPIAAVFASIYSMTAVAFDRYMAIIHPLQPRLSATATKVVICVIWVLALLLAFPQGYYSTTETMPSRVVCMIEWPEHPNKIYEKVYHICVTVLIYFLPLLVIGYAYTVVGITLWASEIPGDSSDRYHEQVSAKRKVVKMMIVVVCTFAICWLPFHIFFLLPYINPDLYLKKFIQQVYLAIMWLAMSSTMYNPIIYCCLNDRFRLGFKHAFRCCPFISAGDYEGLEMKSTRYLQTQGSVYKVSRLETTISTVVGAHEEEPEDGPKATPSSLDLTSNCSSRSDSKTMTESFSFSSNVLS
T5 sequence (P41145 whole entry): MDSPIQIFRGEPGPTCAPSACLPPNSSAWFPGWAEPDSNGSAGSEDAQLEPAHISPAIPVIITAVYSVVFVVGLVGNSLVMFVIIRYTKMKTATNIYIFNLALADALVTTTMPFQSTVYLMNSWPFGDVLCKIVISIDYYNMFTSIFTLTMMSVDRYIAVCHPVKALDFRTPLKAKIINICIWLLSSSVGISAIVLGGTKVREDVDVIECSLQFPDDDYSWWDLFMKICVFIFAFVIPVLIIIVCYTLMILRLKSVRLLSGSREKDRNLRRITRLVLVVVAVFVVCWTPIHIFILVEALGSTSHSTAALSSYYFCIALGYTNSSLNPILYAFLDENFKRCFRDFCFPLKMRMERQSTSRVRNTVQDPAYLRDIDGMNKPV
T8 sequence (P41968 whole entry): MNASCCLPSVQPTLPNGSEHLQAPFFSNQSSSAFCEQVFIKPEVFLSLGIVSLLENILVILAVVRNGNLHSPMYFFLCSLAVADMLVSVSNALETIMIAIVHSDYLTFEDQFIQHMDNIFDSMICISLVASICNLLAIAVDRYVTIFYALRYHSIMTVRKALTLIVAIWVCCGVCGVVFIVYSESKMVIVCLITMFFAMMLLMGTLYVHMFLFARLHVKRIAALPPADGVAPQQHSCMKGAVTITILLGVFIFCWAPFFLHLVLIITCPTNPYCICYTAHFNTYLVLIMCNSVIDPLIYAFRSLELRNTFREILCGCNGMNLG
T7 sequence (P35372 whole entry): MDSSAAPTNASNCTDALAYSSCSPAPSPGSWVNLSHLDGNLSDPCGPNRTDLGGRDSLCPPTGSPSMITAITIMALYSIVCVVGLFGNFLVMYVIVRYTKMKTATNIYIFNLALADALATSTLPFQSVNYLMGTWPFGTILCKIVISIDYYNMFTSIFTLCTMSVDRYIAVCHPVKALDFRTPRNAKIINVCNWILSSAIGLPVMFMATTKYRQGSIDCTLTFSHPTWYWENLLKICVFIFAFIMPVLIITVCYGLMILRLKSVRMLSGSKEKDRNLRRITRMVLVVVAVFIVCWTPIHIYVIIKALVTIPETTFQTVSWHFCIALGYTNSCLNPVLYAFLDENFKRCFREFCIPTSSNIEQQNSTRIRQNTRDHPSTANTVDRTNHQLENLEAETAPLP
T2 sequence (Q99705 whole entry): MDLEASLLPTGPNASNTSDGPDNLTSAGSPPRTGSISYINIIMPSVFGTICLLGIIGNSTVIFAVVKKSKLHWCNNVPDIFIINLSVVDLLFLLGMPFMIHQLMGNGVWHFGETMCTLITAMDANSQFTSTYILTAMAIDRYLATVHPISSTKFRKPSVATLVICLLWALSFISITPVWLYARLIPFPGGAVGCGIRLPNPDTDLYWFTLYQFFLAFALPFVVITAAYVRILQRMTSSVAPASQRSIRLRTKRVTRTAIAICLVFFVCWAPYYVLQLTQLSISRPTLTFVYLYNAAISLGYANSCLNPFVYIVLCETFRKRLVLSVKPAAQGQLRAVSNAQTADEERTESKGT
T10 sequence (P33032 whole entry): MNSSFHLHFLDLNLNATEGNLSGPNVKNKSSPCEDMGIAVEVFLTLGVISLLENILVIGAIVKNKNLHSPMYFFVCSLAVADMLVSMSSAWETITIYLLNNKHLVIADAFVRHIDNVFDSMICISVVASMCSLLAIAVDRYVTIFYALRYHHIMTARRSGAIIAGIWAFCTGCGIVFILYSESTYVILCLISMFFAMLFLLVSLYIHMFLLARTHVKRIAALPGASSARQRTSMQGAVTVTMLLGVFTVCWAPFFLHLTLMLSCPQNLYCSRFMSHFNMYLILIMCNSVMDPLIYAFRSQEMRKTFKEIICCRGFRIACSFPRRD
T3 sequence (P41146 whole entry): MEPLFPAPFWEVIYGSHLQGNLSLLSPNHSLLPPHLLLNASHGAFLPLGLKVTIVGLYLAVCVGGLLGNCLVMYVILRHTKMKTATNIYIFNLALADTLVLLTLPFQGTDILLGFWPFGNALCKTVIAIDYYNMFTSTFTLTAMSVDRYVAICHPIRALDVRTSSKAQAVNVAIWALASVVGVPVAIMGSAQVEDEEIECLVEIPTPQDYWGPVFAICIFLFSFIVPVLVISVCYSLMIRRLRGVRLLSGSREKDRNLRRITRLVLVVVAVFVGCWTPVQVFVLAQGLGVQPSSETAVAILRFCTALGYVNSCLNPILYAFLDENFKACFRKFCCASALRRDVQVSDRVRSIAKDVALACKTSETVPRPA

COCC1OC(OCc2ccccc2)C(NC(=O)CCNC(=N)N)C(OCc2ccccc2)C1O (stereo not drawn) [compound 173]
A1 radioligand binding, percentage inhibition (Human δ-opioid (DOP); [3H]-Bremazocine): − (“−” indicates less than 50% inhibition at 10 μM) | A6 radioligand binding, percentage inhibition ([1]; [125I]-S36057): − (“−” indicates less than 50% inhibition at 10 μM) | A10 radioligand binding, percentage inhibition (Human opioid (ORL1); [125I]-Nociceptin): − (“−” indicates less than 50% inhibition at 10 μM) | A11 radioligand binding, percentage inhibition (Mouse urotensin (mUR2); [125I]-Urotensin II): − (“−” indicates less than 50% inhibition at 10 μM) | A2 radioligand binding, percentage inhibition (Human κ-Opioid (KOP); [3H]-Diprenorphine): − (“−” indicates less than 50% inhibition at 10 μM) | A8 radioligand binding, percentage inhibition (Human neurokinin (NK1); [125I]-Substance P): + (“+” indicates greater than 50% inhibition at 10 μM) | A7 radioligand binding, percentage inhibition (Human μ-opioid (MOP); [3H]-Naloxone): − (“−” indicates less than 50% inhibition at 10 μM) | A3 radioligand binding, percentage inhibition (Human Melanocortin (MC3); [125I]-NDP-αMSH): − (“−” indicates less than 50% inhibition at 10 μM) | A4 radioligand binding, percentage inhibition (Human Melanocortin (MC4); [125I]-NDP-αMSH): − (“−” indicates less than 50% inhibition at 10 μM) | A5 radioligand binding, percentage inhibition (Human melanocortin (MC5); [125I]-NDP-αMSH): − (“−” indicates less than 50% inhibition at 10 μM) | A9 radioligand binding, percentage inhibition ([2]; [125I]-PYY): − (“−” indicates less than 50% inhibition at 10 μM)

COC[C@H]1OC(OCc2ccc(Cl)cc2)[C@H](NC(=O)CNC(=N)N)[C@@H](OCc2ccc(Cl)cc2)[C@@H]1O (stereo partly drawn) [compound 37]
A1 radioligand binding inhibition (Human δ-opioid (DOP); human δ-opioid (DOP) membranes): − (“−” indicates less than 50% inhibition at 10 μM) | A6 radioligand binding inhibition ([1]; human MCH1 membranes): + (“+” indicates greater than 50% inhibition at 10 μM) | A10 radioligand binding inhibition (Human opioid (ORL1); human ORL1 membranes): − (“−” indicates less than 50% inhibition at 10 μM) | A11 radioligand binding inhibition (Mouse urotensin (mUR2); mouse urotensin mUR2 membranes): − (“−” indicates less than 50% inhibition at 10 μM) | A2 radioligand binding inhibition (Human κ-Opioid (KOP); human κ-opioid (KOP) membranes): − (“−” indicates less than 50% inhibition at 10 μM) | A8 radioligand binding inhibition (Human neurokinin (NK1); human neurokinin NK1 membranes): − (“−” indicates less than 50% inhibition at 10 μM) | A7 radioligand binding inhibition (Human μ-opioid (MOP); human μ-opioid (MOP) membranes): − (“−” indicates less than 50% inhibition at 10 μM) | A3 radioligand binding inhibition (Human Melanocortin (MC3); human melanocortin MC3 membranes): + (“+” indicates greater than 50% inhibition at 10 μM) | A4 radioligand binding inhibition (Human Melanocortin (MC4); human melanocortin MC4 membranes): + (“+” indicates greater than 50% inhibition at 10 μM) | A5 radioligand binding inhibition (Human melanocortin (MC5); human melanocortin MC5 membranes): + (“+” indicates greater than 50% inhibition at 10 μM) | A9 radioligand binding inhibition ([2]; human NPY-Y1 membranes): − (“−” indicates less than 50% inhibition at 10 μM)

CSC1OC(COCc2ccc3ccccc3c2)C(O)C(OCc2ccc3ccccc3c2)C1NC(=O)CCCN (stereo not drawn) [compound 320]
A1: inhibition of radioligand binding, human δ-opioid (DOP) (Human δ-opioid (DOP); [3H]-Bremazocine): − (“−” indicates less than 50% inhibition at 10 μM) | A6: inhibition of radioligand binding, human melanin-concentrating hormone (MCH1) ([1]; [125I]-S36057): − (“−” indicates less than 50% inhibition at 10 μM) | A10: inhibition of radioligand binding, human opioid (ORL1) (Human opioid (ORL1); [125I]-Nociceptin): − (“−” indicates less than 50% inhibition at 10 μM) | A11: inhibition of radioligand binding, mouse urotensin (mUR2) (Mouse urotensin (mUR2); [125I]-Urotensin II): − (“−” indicates less than 50% inhibition at 10 μM) | A2: inhibition of radioligand binding, human κ-opioid (KOP) (Human κ-Opioid (KOP); [3H]-Diprenorphine): − (“−” indicates less than 50% inhibition at 10 μM) | A8: inhibition of radioligand binding, human neurokinin (NK1) (Human neurokinin (NK1); [125I]-Substance P): + (“+” indicates greater than 50% inhibition at 10 μM) | A7: inhibition of radioligand binding, human μ-opioid (MOP) (Human μ-opioid (MOP); [3H]-Naloxone): − (“−” indicates less than 50% inhibition at 10 μM) | A3: inhibition of radioligand binding, human melanocortin (MC3) (Human Melanocortin (MC3); [125I]-NDP-αMSH): − (“−” indicates less than 50% inhibition at 10 μM) | A4: inhibition of radioligand binding, human melanocortin (MC4) (Human Melanocortin (MC4); [125I]-NDP-αMSH): − (“−” indicates less than 50% inhibition at 10 μM) | A5: inhibition of radioligand binding, human melanocortin (MC5) (Human melanocortin (MC5); [125I]-NDP-αMSH): + (“+” indicates greater than 50% inhibition at 10 μM) | A9: inhibition of radioligand binding, human neuropeptide Y (NPY-Y1) ([2]; [125I]-PYY): − (“−” indicates less than 50% inhibition at 10 μM)

Source: patent publication US20080009418A1, “Selective Inhibitors” (Alchemia LTD., priority 2004, published 2008)
